The source of these data is PMC5654082 (Malaria Journal, 2017).

For the data set, the target named is T1, MATE1 (Homo sapiens, UniProt Q96FL8).
T1 sequence (Q96FL8 1-570): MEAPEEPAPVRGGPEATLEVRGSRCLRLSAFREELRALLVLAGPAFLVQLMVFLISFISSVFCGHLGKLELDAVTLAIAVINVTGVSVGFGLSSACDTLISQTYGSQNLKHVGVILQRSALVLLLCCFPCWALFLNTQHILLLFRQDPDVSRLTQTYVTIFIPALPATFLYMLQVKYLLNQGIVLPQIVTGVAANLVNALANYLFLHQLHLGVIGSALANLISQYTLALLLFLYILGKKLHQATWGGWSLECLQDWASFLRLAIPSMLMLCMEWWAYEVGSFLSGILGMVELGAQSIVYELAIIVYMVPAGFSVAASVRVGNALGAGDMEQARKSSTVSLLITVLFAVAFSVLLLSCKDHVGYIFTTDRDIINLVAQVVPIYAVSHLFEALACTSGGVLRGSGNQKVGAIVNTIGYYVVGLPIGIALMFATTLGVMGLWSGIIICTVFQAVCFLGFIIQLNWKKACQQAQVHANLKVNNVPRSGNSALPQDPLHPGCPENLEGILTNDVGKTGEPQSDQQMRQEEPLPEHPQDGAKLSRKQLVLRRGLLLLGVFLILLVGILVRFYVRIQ
Put plainly: Export assay in HEK293 cells co-transduced with OCT1 and MATE1. In kind it is cell-based. Set-up: host or cells: HEK293, baculovirus transduction (CMV promoter), transient; co-transduced with human OCT1 in the export assay. As to conditions: cells expressing OCT1 and MATE1; 1 µM, 1 min, pH 7.4. As to the method: HEK293 cells were modified to transiently express (a combination of) human OCT1, OCT2, MATE1, MATE2-K, or eYFP. Briefly, cDNA of the respective genes was cloned downstream of a CMV promoter into a baculovirus, of which passage three was used to transduce HEK293 cells. These cells were seeded in poly-D-lysine coated 24- or 96-wells plates and grown in a 37 °C incubator at 5% CO2. Growth was initiated at ~ 25% confluency using 375 or 125 μL cell and complete medium (DMEM + GlutaMAX™-I supplemented with 10% fetal bovine serum) suspension per well, respectively. […]
Import and export of PG and cycloguanil (CG) was assessed by single and double transduced HEK293 cells. […] Significant reduction in uptake (i.e. export by MATEs) was determined using ln transformation and a one-way repeated measures ANOVA with Dunnet’s post test.
Anti-malarial concentration in the cell lysates was quantified using an LC–MS/MS system consisting of a UPLC, a binary solvent manager, a vacuum degasser and an autosampler, coupled to a Xevo TQ-S micro triple quadrupole mass spectrometer. […] Positive ion mode was used with selected reaction monitoring (SRM) for the quantitative analysis of AMO, ART, ATO, CQ, CG, DHA, LUM, MQ, PQ, PG, and QN. The peak area of the most abundant product ion was used for quantification.

Structures can show the parent of a compound that is named as a salt.

Take `[H]/N=C(\N/C(=N/[H])Nc1ccc(Cl)cc1)NC(C)C` [Proguanil, proguanil hydrochloride]: the “Uptake, percentage of eYFP control cells” value was found to be 780 ± 70%.
